For assay [1], the target named is T1, Apoptotic protease-activating factor 1 (Homo sapiens, UniProt O14727).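 Further: caspase-3 cleavage of fluorogenic Rh110 DEVD substrate downstream of apoptosome activation.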
T1 sequence (O14727 whole entry): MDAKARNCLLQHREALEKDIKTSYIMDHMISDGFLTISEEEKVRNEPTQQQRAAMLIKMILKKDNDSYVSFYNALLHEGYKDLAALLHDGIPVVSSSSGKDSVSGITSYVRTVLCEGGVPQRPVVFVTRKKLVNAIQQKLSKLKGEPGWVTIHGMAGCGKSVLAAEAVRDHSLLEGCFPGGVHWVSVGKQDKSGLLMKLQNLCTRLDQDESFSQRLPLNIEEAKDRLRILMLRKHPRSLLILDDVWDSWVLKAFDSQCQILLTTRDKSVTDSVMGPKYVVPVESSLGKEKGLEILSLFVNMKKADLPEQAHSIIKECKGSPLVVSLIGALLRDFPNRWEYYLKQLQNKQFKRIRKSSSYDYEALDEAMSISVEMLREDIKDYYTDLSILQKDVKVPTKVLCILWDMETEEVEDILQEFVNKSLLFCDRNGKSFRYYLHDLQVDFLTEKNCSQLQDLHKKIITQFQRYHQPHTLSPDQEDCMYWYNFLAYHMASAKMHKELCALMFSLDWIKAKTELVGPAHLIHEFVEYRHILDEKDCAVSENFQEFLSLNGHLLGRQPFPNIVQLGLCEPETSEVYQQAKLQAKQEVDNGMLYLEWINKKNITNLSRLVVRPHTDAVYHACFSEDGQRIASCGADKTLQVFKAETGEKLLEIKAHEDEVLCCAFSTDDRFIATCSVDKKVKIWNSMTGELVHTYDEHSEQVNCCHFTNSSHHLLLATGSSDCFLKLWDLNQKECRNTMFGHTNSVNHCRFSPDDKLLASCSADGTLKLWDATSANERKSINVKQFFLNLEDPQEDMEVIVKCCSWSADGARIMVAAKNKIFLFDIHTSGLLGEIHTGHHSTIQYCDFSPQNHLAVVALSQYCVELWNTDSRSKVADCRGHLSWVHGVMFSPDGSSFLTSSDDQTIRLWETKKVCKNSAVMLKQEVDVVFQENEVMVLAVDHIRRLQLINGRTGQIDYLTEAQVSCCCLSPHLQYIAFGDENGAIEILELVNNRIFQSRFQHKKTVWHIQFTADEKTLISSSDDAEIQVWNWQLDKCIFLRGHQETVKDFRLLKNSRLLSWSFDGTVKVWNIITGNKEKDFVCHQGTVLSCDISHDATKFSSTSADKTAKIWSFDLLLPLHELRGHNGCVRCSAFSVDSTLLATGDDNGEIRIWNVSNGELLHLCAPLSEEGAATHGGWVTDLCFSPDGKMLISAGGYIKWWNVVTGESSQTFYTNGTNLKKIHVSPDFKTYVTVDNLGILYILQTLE
Briefly: SAR analysis of small molecule Activators of Apaf-1 in a Fluorescent assay. The note with it: read-out: EC50_Mean. The format is functional.

The target in assay [2] is T2, Orexin/Hypocretin receptor type 1 (Homo sapiens, UniProt O43613).
T2 sequence (O43613 whole entry): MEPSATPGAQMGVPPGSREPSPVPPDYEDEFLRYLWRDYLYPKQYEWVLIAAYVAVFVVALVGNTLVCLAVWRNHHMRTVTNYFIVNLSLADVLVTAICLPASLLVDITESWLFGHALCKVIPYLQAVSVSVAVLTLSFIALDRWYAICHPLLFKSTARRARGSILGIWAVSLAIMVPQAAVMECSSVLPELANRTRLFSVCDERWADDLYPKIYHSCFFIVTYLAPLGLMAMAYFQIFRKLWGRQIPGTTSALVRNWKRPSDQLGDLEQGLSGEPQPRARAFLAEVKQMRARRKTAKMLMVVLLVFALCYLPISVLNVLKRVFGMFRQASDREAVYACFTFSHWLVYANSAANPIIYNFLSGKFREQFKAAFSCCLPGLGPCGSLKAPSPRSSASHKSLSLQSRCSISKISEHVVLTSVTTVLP
Briefly: Homogeneous Time Resolved Fluorescence (HTRF)-based cell-based high throughput dose response assay for antagonists of the orexin 1 receptor (OX1R; HCRTR1). [Related pubchem assays (depositor defined):AID434989, AID435008, AID463079, AID485270, AID492963, AID492964, AID492965, AID493232, AID504717, AID504718]. The format is functional. (In TR-FRET formats the signal depends on donor and acceptor labels being close together.)

The target in assay [3] is T2, Orexin/Hypocretin receptor type 1. Briefly: Fluorescence-based cell-based high throughput dose response assay for antagonists of the orexin 1 receptor (OX1R; HCRTR1). [Related pubchem assays (depositor defined):AID434989, AID435008, AID463079, AID485270, AID492963, AID492964, AID492965, AID493232, AID504717, AID504718]. The format is functional.
Assay [4] concerns the target T3, Orexin receptor type 2 (Homo sapiens, UniProt O43614).
T3 sequence (O43614 whole entry): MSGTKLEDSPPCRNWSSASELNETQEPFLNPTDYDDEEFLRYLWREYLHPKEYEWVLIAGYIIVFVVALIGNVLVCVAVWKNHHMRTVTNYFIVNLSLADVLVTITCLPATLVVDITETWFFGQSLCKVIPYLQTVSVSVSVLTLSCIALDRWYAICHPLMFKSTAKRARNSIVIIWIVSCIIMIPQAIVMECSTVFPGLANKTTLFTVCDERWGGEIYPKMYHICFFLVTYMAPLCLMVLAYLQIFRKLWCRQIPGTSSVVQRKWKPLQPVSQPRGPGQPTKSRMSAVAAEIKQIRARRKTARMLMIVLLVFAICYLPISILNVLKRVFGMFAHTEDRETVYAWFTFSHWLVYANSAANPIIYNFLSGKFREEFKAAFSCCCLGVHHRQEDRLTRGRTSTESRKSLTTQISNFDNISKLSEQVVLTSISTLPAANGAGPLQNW
Briefly: Counterscreen assay for antagonists of the orexin 1 receptor (OX1R; HCRTR1): Homogeneous Time Resolved Fluorescence (HTRF)-based cell-based dose response assay for antagonists of the orexin 2 receptor (OX2R; HCRTR2), run by assay provider. It counts as functional.

The next assay concerns the target T4, Cytochrome P450 1A2 (Homo sapiens, UniProt P05177).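 Further: PubChem cytochrome P450 panel assay, CYP1A2 panel member.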
T4 sequence (P05177 whole entry): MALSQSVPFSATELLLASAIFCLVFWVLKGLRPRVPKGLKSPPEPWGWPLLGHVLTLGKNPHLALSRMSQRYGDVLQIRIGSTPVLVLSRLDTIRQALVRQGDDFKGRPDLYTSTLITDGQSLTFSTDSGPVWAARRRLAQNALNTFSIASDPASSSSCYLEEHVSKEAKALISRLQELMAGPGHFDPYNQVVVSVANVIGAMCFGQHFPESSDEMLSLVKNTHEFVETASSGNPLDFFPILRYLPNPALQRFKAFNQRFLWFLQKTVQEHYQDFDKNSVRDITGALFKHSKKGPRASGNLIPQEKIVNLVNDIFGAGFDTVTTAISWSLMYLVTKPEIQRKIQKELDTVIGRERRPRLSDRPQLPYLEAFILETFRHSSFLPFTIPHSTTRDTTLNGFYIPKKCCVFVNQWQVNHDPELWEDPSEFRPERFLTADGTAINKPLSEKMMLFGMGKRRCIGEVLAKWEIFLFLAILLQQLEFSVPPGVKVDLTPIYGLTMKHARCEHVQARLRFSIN

Assay [5] is described as follows: Counterscreen for antagonists of the orexin 1 receptor (OX1R; HCRTR1): Fluorescence-based cell-based high throughput dose response assay to identify antagonists of the parental CHO cell line. [Related pubchem assays (depositor defined):AID434989, AID435008, AID463079, AID485270, AID492963, AID492964, AID492965, AID493232, AID504699, AID504701]. It counts as functional. A general note: A counterscreen serves to expose hits that act by an unwanted route or on another target.

Assay [6] deals with T3, Orexin receptor type 2. Briefly: Counterscreen assay for antagonists of the orexin 1 receptor (OX1R; HCRTR1): Fluorescence-based cell-based dose response assay for antagonists of the orexin 2 receptor (OX2R; HCRTR2), run by assay provider. It counts as functional.
Another assay deals with CHO-K1. Briefly: Counterscreen for antagonists of the orexin 1 receptor (OX1R; HCRTR1): Homogeneous time resolved fluorescence (HTRF)-based cell-based dose response assay to identify antagonists of the parental CHO-K1 cell line. [Related pubchem assays (depositor defined):AID434989, AID435008, AID463079, AID485270, AID492963, AID492964, AID492965, AID493232, AID504699, AID504701]. The format is functional. The note with it: Cricetulus griseus.

For assay [7], the target named is T5, Tyrosine-protein phosphatase non-receptor type 11 (Homo sapiens, UniProt Q06124).
T5 sequence (Q06124 whole entry): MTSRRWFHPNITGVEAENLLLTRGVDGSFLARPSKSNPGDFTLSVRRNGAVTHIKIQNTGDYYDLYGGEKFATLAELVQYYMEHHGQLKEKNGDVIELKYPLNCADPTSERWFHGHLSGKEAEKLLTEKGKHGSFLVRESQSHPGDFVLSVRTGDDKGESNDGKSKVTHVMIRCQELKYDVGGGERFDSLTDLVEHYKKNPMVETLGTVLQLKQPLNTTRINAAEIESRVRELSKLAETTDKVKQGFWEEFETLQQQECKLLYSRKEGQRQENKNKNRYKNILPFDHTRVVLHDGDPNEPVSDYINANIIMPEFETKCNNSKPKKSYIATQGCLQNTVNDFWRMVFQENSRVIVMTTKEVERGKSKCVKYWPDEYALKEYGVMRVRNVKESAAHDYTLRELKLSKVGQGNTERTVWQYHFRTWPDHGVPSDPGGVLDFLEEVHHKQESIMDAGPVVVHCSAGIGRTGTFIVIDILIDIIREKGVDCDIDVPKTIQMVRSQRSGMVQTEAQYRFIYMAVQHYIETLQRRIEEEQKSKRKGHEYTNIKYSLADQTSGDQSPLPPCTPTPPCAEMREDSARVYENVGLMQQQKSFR
Briefly: SHP2 phosphatase inhibition, dose response, selectivity assay for STEP inhibitor project, biochemical (AID 602367). The note with it: read-out: IC50_Mean. It counts as functional.

The target in assay [8] is Dual specificity protein phosphatase 3 (Homo sapiens, UniProt P51452). Briefly: VHR phosphatase inhibition, dose response, selectivity assay for STEP inhibitor project, biochemical (AID 602374). It counts as functional. The note with it: read-out: IC50_Mean.
For assay [9], the target named is T6, Tyrosine-protein phosphatase non-receptor type 5 (Homo sapiens, UniProt P54829).
T6 sequence (P54829 whole entry): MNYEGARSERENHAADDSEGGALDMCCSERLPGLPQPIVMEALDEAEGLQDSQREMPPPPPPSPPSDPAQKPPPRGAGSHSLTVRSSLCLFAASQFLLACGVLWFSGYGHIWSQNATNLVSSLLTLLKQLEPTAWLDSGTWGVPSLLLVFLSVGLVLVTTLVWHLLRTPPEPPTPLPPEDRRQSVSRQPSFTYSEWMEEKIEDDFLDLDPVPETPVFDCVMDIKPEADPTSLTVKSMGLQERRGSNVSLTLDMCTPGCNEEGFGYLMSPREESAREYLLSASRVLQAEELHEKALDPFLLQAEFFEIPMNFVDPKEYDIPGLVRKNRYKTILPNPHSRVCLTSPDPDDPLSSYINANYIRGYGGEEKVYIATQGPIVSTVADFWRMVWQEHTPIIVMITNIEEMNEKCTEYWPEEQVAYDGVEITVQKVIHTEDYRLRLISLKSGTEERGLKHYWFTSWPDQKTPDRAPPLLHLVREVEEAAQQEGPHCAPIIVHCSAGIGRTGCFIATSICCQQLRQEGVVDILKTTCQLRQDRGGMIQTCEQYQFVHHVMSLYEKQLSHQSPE
Briefly: STEP phosphatase inhibitors, confirmation, biochemical, fluorescence intensity, uHTS hits (AID 602372). The note with it: read-out: IC50_Mean. It counts as functional.

The source made the active and inactive calls.

This note sets out measurements from ChEMBL document CHEMBL1201862, “PubChem BioAssay data set” (2004).

Sequence of Dual specificity protein phosphatase 3 (P51452 whole entry): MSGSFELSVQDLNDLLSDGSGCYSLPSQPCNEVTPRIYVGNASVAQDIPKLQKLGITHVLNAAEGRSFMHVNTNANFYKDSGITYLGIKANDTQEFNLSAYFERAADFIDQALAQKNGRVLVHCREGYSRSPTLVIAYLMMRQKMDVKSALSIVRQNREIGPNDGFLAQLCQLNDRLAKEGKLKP

In the case of `Cc1csc2c(=O)sc(NC(=O)c3ccco3)nc12`, in assay [1], the EC50 is > 100 µM (inactive).

The AC50 is the midpoint of the concentration-response curve, whichever way the signal moves. On to `Cc1cccc(NC(=O)NNC(=O)c2cc(-c3ccccc3Cl)nc3ccccc23)c1`, for which the IC50 is 0.815 µM (active) in assay [2]; 13.5 µM (inactive) in assay [3]; 27.1 µM (inactive) at Orexin receptor type 2 [4]; 48 µM (inactive) in assay [5]; 16.4 µM (inactive) on Orexin receptor type 2 [6]; > 66.3 µM (inactive) in the assay on CHO-K1. The AC50 at Cytochrome P450 1A2 is 15.8 µM (inconclusive).

With `COc1ccc(NC(=S)N2CCC(N(C)CC3CCCO3)CC2)cc1Cl` (configuration not stated), the IC50 is 3.65 µM (active) in assay [7], 1.37 µM (active) in [8] and 27.2 µM (inactive) in [9].

Take `C=CCn1c(SCC(=O)Nc2cc3oc4ccccc4c3cc2OC)nnc1-c1cnccn1`: the IC50 in assay [2] was 0.339 µM (active); in assay [3] it was 3.14 µM (active); on Orexin receptor type 2 [4], > 50 µM (inactive); in assay [5], > 49.7 µM (inactive); at Orexin receptor type 2 [6] it was 10.4 µM (inactive); in the assay with CHO-K1, > 66.2 µM (inactive).

Take `Cn1cc(CC(=O)Nc2cccc(C#N)c2)c2ccccc21`: the IC50 in assay [7] was > 80 µM (inactive); in [8], 51.9 µM (inactive); in assay [9], > 80 µM (inactive).

Regarding `CSc1cccc(NC(=O)C2CCCN(S(=O)(=O)c3ccc(F)cc3)C2)c1` (configuration not stated), the IC50 in [2] is 1.59 µM (active); in assay [3] it was 10.4 µM (inactive); on Orexin receptor type 2 [4], 14.2 µM (inactive); in assay [5], > 49.8 µM (inactive); on Orexin receptor type 2 [6] it was 8.4 µM (active); with CHO-K1 it was > 66.2 µM (inactive).

For the molecule `CC(Cc1ccccc1)C(=O)O` (configuration not stated), the EC50 in assay [1] is > 100 µM (inactive).
